In the supplement of paper PMC10307832:

Tests used:
Assay in all cases: relative viability (nuclei count vs DMSO), 5 days (fraction); higher = more cells survive
CUDC-101 + Navitoclax = compound: C#Cc1cccc(Nc2ncnc3cc(OC)c(OCCCCCCC(=O)NO)cc23)c1 [CUDC-101] + CC1(C)CCC(c2ccc(Cl)cc2)=C(CN2CCN(c3ccc(C(=O)NS(=O)(=O)c4ccc(N[C@H](CCN5CCOCC5)CSc5ccccc5)c(S(=O)(=O)C(F)(F)F)c4)cc3)CC2)C1 [Navitoclax] (partner 0.5 µM)
How it was run: (§1)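 Lung cancer cell lines in 1536-well plates got either a single drug or a fixed anchor-drug dose together with five library-drug doses (not always all listed) in √10 steps, by pin tool, on the day after seeding. Nuclei were counted after 5 days, and relative viability is the treated-to-vehicle ratio of nuclei counts. Values are medians of duplicate plates.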

Vandetanib + Navitoclax = compound: COc1cc2/c(=N/c3ccc(Br)cc3F)nc[nH]c2cc1OCC1CCN(C)CC1 [Vandetanib] + CC1(C)CCC(c2ccc(Cl)cc2)=C(CN2CCN(c3ccc(C(=O)NS(=O)(=O)c4ccc(N[C@H](CCN5CCOCC5)CSc5ccccc5)c(S(=O)(=O)C(F)(F)F)c4)cc3)CC2)C1 [Navitoclax] (partner 0.5 µM)
How it was run: as §1

[1] = compound: C1=CC=C2C(=C1)N=C(S2)C(C#N)C3=NC(=NC=C3)NCCC4=CN=CC=C4 + CCNC(=O)c1noc(-c2cc(C(C)C)c(O)cc2O)c1-c1ccc(CN2CCOCC2)cc1 [Luminespib] (partner 0.01 µM)
How it was run: as §1

Vandetanib + Bortezomib = compound: COc1cc2/c(=N/c3ccc(Br)cc3F)nc[nH]c2cc1OCC1CCN(C)CC1 [Vandetanib] + CC(C)C[C@H](NC(=O)[C@H](Cc1ccccc1)NC(=O)c1cnccn1)B(O)O [Bortezomib] (partner 0.002 µM)
How it was run: as §1

Cell Line	relative viability (CUDC-101 + Navitoclax; first compound 0.01 µM)	relative viability (CUDC-101 + Navitoclax; first compound 0.03162 µM)	relative viability (CUDC-101 + Navitoclax; first compound 0.1 µM)	relative viability (CUDC-101 + Navitoclax; first compound 0.3162 µM)	relative viability (CUDC-101 + Navitoclax; first compound 1 µM)	relative viability (Vandetanib + Navitoclax; first compound 0.02 µM)	relative viability (Vandetanib + Navitoclax; first compound 0.06325 µM)	relative viability (Vandetanib + Navitoclax; first compound 0.2 µM)	relative viability (Vandetanib + Navitoclax; first compound 0.6325 µM)	relative viability (Vandetanib + Navitoclax; first compound 2 µM)	relative viability ([1]; first compound 0.005 µM)	relative viability ([1]; first compound 0.01581 µM)	relative viability ([1]; first compound 0.05 µM)	relative viability ([1]; first compound 0.1581 µM)	relative viability ([1]; first compound 0.5 µM)	relative viability (Vandetanib + Bortezomib; first compound 0.02 µM)	relative viability (Vandetanib + Bortezomib; first compound 0.06325 µM)	relative viability (Vandetanib + Bortezomib; first compound 0.2 µM)	relative viability (Vandetanib + Bortezomib; first compound 0.6325 µM)	relative viability (Vandetanib + Bortezomib; first compound 2 µM)
BEN	0.0901	0.0957	0.427	0.137	0.0346	0.0787	0.0663	0.063	0.0857	0.0698	0.081	0.337	0.254	0.688	0.342	0.875	0.714	0.83	0.919	0.861
NCI-H441	0.875	0.57	0.545	0.795	0.392	0.627	0.529	0.754	0.368	0.578	–	0.308	0.351	0.365	0.301	0.449	0.459	0.373	0.547	0.386
NCI-H1915	0.796	0.793	0.804	0.743	0.743	0.769	0.781	0.772	0.794	0.772	0.464	0.933	0.826	0.876	0.601	0.947	0.885	1.07	0.973	0.943
NCI-H1792	0.586	0.636	0.56	0.625	0.582	0.676	0.573	0.599	0.626	0.609	–	0.462	0.453	0.255	0.6	0.994	0.926	0.914	0.865	0.887
SK-LU-1	1.03	0.774	0.852	0.662	0.489	0.954	0.571	0.794	0.953	0.789	0.185	0.194	0.187	0.223	0.197	1.23	1.01	1.21	1.39	0.467
NCI-H1666	1.07	0.796	1	1.04	0.548	0.83	0.861	0.951	0.88	0.46	0.856	0.965	0.986	1.1	0.833	0.849	0.814	0.712	0.831	0.786
COR-L23	1.08	1.07	0.907	1.09	0.444	0.95	0.915	0.114	1.07	0.954	0.404	0.825	0.727	1.06	0.614	0.869	0.814	0.925	0.999	0.994
NCI-H460	1.23	1.12	1.15	1.06	0.965	1.13	0.999	0.0215	1.25	1.09	0.0281	0.0289	0.031	0.0329	0.0322	1.02	0.992	1.1	1.09	0.98
